In ChEMBL document CHEMBL4190357, “New Substituted Cyanoindoline Derivatives as MAP3K14 Kinase Inhibitors for the Treatment of Cancer and Autoimmune Disorders” (ACS Med Chem Lett, 2017):

What was measured:
JJN-3 = assay: Antiproliferative activity against human JJN-3 cells after 96 hrs by CellTiter-Glo luminescence assay; assay type: functional, cell-based; conditions: JJN-3, 96 h
[1] = target: T1, Mitogen-activated protein kinase kinase kinase 14 (Homo sapiens, UniProt Q99558); assay: Inhibition of MAP3K14 in human L363 assessed as decrease in IKKalpha phosphorylation level after 2 hrs by sandwich immuno assay
T1 sequence (Q99558 whole entry): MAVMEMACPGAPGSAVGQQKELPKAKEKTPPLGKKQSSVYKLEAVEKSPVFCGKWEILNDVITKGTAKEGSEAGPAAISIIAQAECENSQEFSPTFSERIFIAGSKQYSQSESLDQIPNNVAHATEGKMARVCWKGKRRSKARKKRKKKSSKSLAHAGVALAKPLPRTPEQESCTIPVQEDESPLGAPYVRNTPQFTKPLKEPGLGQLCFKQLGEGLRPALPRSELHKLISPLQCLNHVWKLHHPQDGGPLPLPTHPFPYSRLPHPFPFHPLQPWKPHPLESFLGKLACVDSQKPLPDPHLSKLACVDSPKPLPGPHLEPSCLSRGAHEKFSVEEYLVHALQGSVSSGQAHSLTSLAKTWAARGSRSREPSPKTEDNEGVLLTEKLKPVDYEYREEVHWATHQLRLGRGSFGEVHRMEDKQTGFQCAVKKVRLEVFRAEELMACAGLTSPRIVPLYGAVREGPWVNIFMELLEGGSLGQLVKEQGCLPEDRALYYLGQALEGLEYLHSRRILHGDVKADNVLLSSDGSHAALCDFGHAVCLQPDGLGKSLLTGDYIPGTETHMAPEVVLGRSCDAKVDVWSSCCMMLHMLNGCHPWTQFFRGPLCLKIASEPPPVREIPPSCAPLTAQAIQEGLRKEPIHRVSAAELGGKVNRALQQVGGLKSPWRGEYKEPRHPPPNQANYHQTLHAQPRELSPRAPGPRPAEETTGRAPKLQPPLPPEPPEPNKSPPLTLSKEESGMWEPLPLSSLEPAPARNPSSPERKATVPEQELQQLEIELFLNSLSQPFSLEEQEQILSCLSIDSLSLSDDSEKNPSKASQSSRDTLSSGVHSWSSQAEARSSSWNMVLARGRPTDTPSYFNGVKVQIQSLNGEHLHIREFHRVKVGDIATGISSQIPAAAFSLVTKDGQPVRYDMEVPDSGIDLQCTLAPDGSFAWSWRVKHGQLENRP

KMS-12-BM = assay: Antiproliferative activity against human KMS-12-BM cells after 96 hrs by CellTiter-Glo luminescence assay; assay type: functional, cell-based
[2] = target: T1, Mitogen-activated protein kinase kinase kinase 14; assay: Inhibition of recombinant human GST-tagged MAP3K14 autophosphorylation after 1 hr by Alpha screen assay

SMILES | IC50 (JJN-3) | IC50 [1] | IC50 (KMS-12-BM) | IC50 [2]
CNC(=O)c1ccc(OC(C)C)c(Nc2nccc(-c3cc(C#N)c4c(c3)[C@@](C)(CO)CN4)n2)c1 | 288 nM | 19.5 nM | > 10000 nM | –
C[C@]1(CO)CNc2c(C#N)cc(-c3ccnc(Nc4cc(C#N)ccc4OC4CC4)n3)cc21 | 67 nM | 11.5 nM | 1230 nM | –
CNC(=O)c1ccc(C)c(Nc2nccc(-c3cc(C#N)c4c(c3)[C@@](C)(CO)CN4)n2)c1 | 85 nM | 2.2 nM | 5190 nM | 1.8 nM
CN1CC(F)C(Oc2ccc(C#N)cc2Nc2nccc(-c3cc(C#N)c4c(c3)[C@@](C)(CO)CN4)n2)C1 (some centres not stated) | 741 nM | 21.4 nM | > 10000 nM | –
CC(C)Oc1ccc(CO)cc1Nc1nccc(-c2cc(C#N)c3c(c2)[C@@](C)(CO)CN3)n1 | 141 nM | 6.6 nM | > 10000 nM | –
Cc1ccc(C#N)cc1Nc1ncc(F)c(-c2cc(C#N)c3c(c2)[C@@](C)(CO)CN3)n1 | 302 nM | 1.2 nM | > 10000 nM | –
C[C@]1(CO)CNc2c(C#N)cc(-c3ccnc(Nc4cc(C#N)ccc4CO)n3)cc21 | 240 nM | 6.3 nM | > 10000 nM | –
Cc1cc(CCN2CCOCC2)c(C#N)cc1Nc1nccc(-c2cc(C#N)c3c(c2)[C@@](C)(CO)CN3)n1 | 29 nM | 1.3 nM | > 10000 nM | –
CC(C)(O)COc1ccc(C#N)cc1Nc1nccc(-c2cc(C#N)c3c(c2)[C@@](C)(CO)CN3)n1 | 138 nM | 25.7 nM | 4900 nM | –
[2H]C([2H])(O)c1ccc(C)c(Nc2nccc(-c3cc(C#N)c4c(c3)[C@@](C)(CO)CN4)n2)c1 | 91 nM | 2.2 nM | > 10000 nM | –
Cc1cc(F)c(C#N)cc1Nc1nccc(-c2cc(C#N)c3c(c2)[C@@](C)(CO)CN3)n1 | 617 nM | 6 nM | > 10000 nM | –
Cc1cc(F)c(CO)cc1Nc1nccc(-c2cc(C#N)c3c(c2)[C@@](C)(CO)CN3)n1 | 272 nM | 7.8 nM | > 10000 nM | –
